These are literature values, as cited in patent publication US11590211B2, “Systems for treating dermal inflammatory conditions” (Nuvothera, Inc., priority 2016, dated 2023).

One data set relates to skin cells. The conditions noted are these: reference 10.
Another data set concerns modified mouse tail test. The conditions noted are these: reference 7.
A further data set relates to human keratinocytes. Conditions: through suppression of pro-inflammatory pathways; references 8, 9.
For the next data set, the system named is NF-κB. The conditions noted are these: reference 5.

As to `COc1cc(/C=C/C(=O)CC(=O)/C=C/c2ccc(O)c(OC)c2)ccc1O` [curcumin], in the data set with skin cells, the “Effect on anti-apoptotic function of TNF-α in skin cells” value is on record as “reverse the anti-apoptotic function of TNF-α”. Moreover, the “Activity in the modified mouse tail test” value in the data set on modified mouse tail test was “anti-psoriatic activity”. The “Effect on proliferation of human keratinocytes” value in the data set on human keratinocytes was “inhibition of the proliferation”. Moreover, in the data set with NF-κB, the “Activation of NF-κB” value was “down-modulated”.
